{
  "source": "patent US20110178171A1",
  "about": "“COMPOUNDS FOR CANCER THERAPY” (China Medical University, priority 2010, published 2011)",
  "key": {"PSA": {"system": "PSA", "assay": "RT-PCR analysis of PSA expression", "type": "cell-based", "details": "human cancer cells, 0.5 μM to 2 μM, 24 h, dose-dependent (FIG. 3A)", "protocol": "Total RNA from LNCaP, PC3, 3T3 cells was isolated as described above. cDNA was synthesized by reverse transcription of 2 μg of total RNA using oligo(dT)12-18 and SuperScript II RNA reverse transcriptase (Invitrogen). The cDNA was then used as the template to amplify the corresponding DNA fragments by PCR using two sets of synthetic oligonucleotide primers. DNA amplification was performed by PCR with the Thermocycler 2400 (PerkinElmer Life and Analytical Sciences, Boston, Mass.) using the following parameters: 35 cycles of denaturing at 95° C. for 1 min, annealing at 60° C. for 1 min, and extension at 72° C. for 2 min. Primers used for the AR PCR amplifications are (F): 5′-ATGGTGAGCAGAGTGCCCTA-3′ (SEQ ID NO: 1) (R): 5′-GTGGTGCTGGAAGCCTCTCCT-3′ (SEQ ID NO: 2) PSA (F) 5′-GGTGACCAAGTTCATGCTGTG-3′ (SEQ ID NO: 3) (R) 5′-GTGTCCTTGATCCACTTCCG-3′ (SEQ ID NO: 4) products were separated on 2% agarose gels, stained with ethidium bromide, and visualized using the Fluor Chem imaging system (Alpha InnoTech, San Leandro, Calif.), and levels of glyceraldehyde-3-phosphate dehydrogenase were used as the control.\nRT-PCR was conducted to examine the effect of Z-K8 on several human cancer cells. Briefly, the cells were treated with Z-K8 (0.5 μM to 2 μM) or Luteolin (as a positive control) for 24 h. […]"}, "PC3 cells": {"system": "PC3 cells", "assay": "MTT growth inhibition assay, PC3", "type": "cell-based, human", "details": "for Viability (%) PC-3: 24 h (Table 2)", "protocol": "(§1) The LNCaP (androgen-sensitive), PC3 (androgen in-dependent), human prostate cancer and normal human fibroblast 3T3 were obtained from American Type Culture Collection (Manassas, Va.) were maintained with RPMI 1640 medium containing 10% FBS and […] each of penicillin and streptomycin at […] in a humidified atmosphere with 5% CO2.\n(§2) The viability of the cells after treated with various chemicals was evaluated using MTT assay preformed in triplicate (Mosmann T. 1983. Rapid colorimetric assay for cellular growth and survival: application to proliferation and cytotoxicity assays”. Journal of immunological methods. 65 (1-2): 55-63). Briefly, the cancer cells (5×10^3) were incubated in 96-well plates containing […] of the culture medium. Cells were permitted to adhere for 12-18 h then washed with phosphate buffered saline (PBS). Solutions were always prepared fresh by dissolving 0.2% DMSO or K8 in culture medium and added to various kind of tumor. After 48 h of exposure, K8 containing medium was removed, washed with PBS and replaced by fresh medium. The cells in each well were then incubated in culture medium with […] MTT for 4 h. After the medium were removed, […] of DMSO and […] of glycine buffer (0.1 M glycine, 0.1 M NaCl, pH 10.5) were added to each well. Absorbance at 570 nm of the maximum was detected by a PowerWave X Microplate ELISA Reader (Bio-TeK Instruments, Winoski, Vt.). The absorbance for DMSO treated cells was considered as 100%. The results were determined by three independent experiments.\nCytotoxicities of Z-K8 (Isochaihulactone) on LNCaP (AR-dependent), and PC3 (AR-independent) tumor cell line were examined in the manner described above. […]"}, "LNCaP cells": {"system": "LNCaP cells", "assay": "MTT growth inhibition assay, LNCaP", "details": "for Viability (%) LNCaP: 24 h (Table 2); for Viability (%) / IC50: LNCaP; for Viability (%): 24 h (Table 1); for IC50: androgen-dependent prostate adenocarcinoma", "protocol": "as §1, §2\nCytotoxicity of K8 (Isochaihulactone) on LNCaP cells was examined in the manner described above. The cells were treated with KS (Isochaihulactone), its Z-form, or its E-form of different concentrations ranging from 2.5 to 20 μM for 24 h.\nCytotoxicities of Z-K8 (Isochaihulactone) on LNCaP (AR-dependent), and PC3 (AR-independent) tumor cell line were examined in the manner described above. The cells were treated with the Z- or E-form K8 (Isochaihulactone) of different concentrations ranging from 0.3125 to 5 μM for 24 h."}},
  "data": [
    {"smiles": "COc1cc(/C=C2\\C(=O)OCC2Cc2ccc3c(c2)OCO3)cc(OC)c1OC", "note": "(racemic) [Z-K8, Racemic (Z)-β-(3′,4′-Methylenedioxybenzyl)-α-(3′,4′,5′-trimethoxybenzylidene)-γ-butyrolactone]", "values": [
      {"measurement": "PSA expression (RT-PCR)", "setting": "PSA", "result": "down regulated"},
      {"measurement": "Viability (%) PC-3", "setting": "PC3 cells; 0.625 μM", "result": 92.0, "unit": "%"},
      {"measurement": "Viability (%) PC-3", "setting": "PC3 cells; 1.25 μM", "result": 84.5, "unit": "%"},
      {"measurement": "Viability (%) PC-3", "setting": "PC3 cells; 2.5 μM", "result": 74.9, "unit": "%"},
      {"measurement": "Viability (%) PC-3", "setting": "PC3 cells; 5 μM", "result": 44.9, "unit": "%"},
      {"measurement": "Viability (%) PC-3", "setting": "PC3 cells; 10 μM", "result": 28.3, "unit": "%"},
      {"measurement": "IC50", "setting": "PC3 cells; PC3, androgen-independent prostate adenocarcinoma", "result": 100, "unit": "µM"},
      {"measurement": "Viability (%) LNCaP", "setting": "LNCaP cells; 0.625 μM", "result": 68.9, "unit": "%"},
      {"measurement": "Viability (%) LNCaP", "setting": "LNCaP cells; 1.25 μM", "result": 43.7, "unit": "%"},
      {"measurement": "Viability (%) LNCaP", "setting": "LNCaP cells; 2.5 μM", "result": 21.7, "unit": "%"},
      {"measurement": "Viability (%) LNCaP", "setting": "LNCaP cells; 5 μM", "result": 18.4, "unit": "%"},
      {"measurement": "Viability (%) LNCaP", "setting": "LNCaP cells; 10 μM", "result": 16.9, "unit": "%"},
      {"measurement": "Viability (%)", "setting": "LNCaP cells; 2.5 μM", "result": 33.0, "unit": "%"},
      {"measurement": "Viability (%)", "setting": "LNCaP cells; 5 μM", "result": 18.7, "unit": "%"},
      {"measurement": "Viability (%)", "setting": "LNCaP cells; 10 μM", "result": 17.2, "unit": "%"},
      {"measurement": "Viability (%)", "setting": "LNCaP cells; 20 μM", "result": 16.1, "unit": "%"},
      {"measurement": "IC50", "setting": "LNCaP cells", "result": 1250, "unit": "nM"},
      {"measurement": "IC50", "setting": "LNCaP cells; listed as Z-form of K8", "result": 1000, "unit": "nM"}
    ]}
  ]
}
